Data on eight compounds can be found in patent US20240190883A1, “KRAS PROTEIN DEGRADERS, PHARMACEUTICAL COMPOSITIONS THEREOF, AND THEIR THERAPEUTIC APPLICATIONS” (BioTheryX, Inc., priority 2021, published 2024).

Assay type in all cases: cell-based
One assay concerns Lovo (G13D) cells. Put plainly: Cell viability assay (CELLTITER-GLO), Lovo cells. To be noted: Homo sapiens, 72 h, 3 days incubation, 2.5% fetal bovine serum, read-out: Inhibition of Cancerous Cells IC50 (μM) Lovo (G13D).
In a further assay the test system is SW480 (G12V) cells. Description: Cell viability assay (CELLTITER-GLO), SW480 cells. To be noted: Homo sapiens, 72 h, 3 days incubation, 2.5% fetal bovine serum, read-out: Inhibition of Cancerous Cells IC50 (μM) SW480 (G12V).
A further assay has as its system SW48 (wt) cells. Description: Cell viability assay (CELLTITER-GLO), SW48 cells. To be noted: Homo sapiens, 72 h, 3 days incubation, 2.5% fetal bovine serum, read-out: Inhibition of Cancerous Cells IC50 (μM) SW48 (wt). In general terms: Cellular ATP, detected with luciferase, serves as a proxy for viable cell number.
The next assay has as its system H23 cells. Put plainly: Cell viability assay (CELLTITER-GLO), H23 cells. The note with it: Homo sapiens, NCI-H23, 72 h, 3 days incubation, 2.5% fetal bovine serum, read-out: Inhibition of Cancerous Cells IC50 (μM) H23. The procedure:
(§1) H358, H23, SW48, and AsPC-1 cells were cultured in RPMI 1640 media supplemented with 10% fetal bovine serum, streptomycin, and penicillin. Lovo and SW480 cells were cultured in DMEM media supplemented with 10% fetal bovine serum, streptomycin, and penicillin. The cell lines were plated in their respective medium supplemented with 2.5% fetal bovine serum, streptomycin, and penicillin. All cell lines were plated in white walled 96-well plates at 2,000 cells/well or 384-well plates at 500 cells/well, except Lovo, which were plated at 4,000 or 1,000 cells/well, respectively. The cells were incubated in DMSO (control) or a compound for 3 days at 37° C. under 5% C02. A CELLTITER-GLO® reagent (100 μL) was then added to each well. After a 10 min incubation with shaking, luminescence was measured using an ENVISION® multimode plate reader. IC50 values are summarized in Table 1 and percentages of inhibition are summarized in Table 2, where compound T1 is 2-(4-(2-methyl-3,5-diphenylpyrazolo[1,5-a]pyrimidin-7-yl)piperazin-1-yl)ethan-1-ol.

Another assay deals with H358 (G12C) cells. Put plainly: Cell viability assay (CELLTITER-GLO), H358 cells. The note with it: Homo sapiens, NCI-H358, 72 h, 3 days incubation, 2.5% fetal bovine serum, read-out: Inhibition of Cancerous Cells IC50 (μM) H358 (G12C).
Assay [1] deals with T1, KRAS protein (Homo sapiens, UniProt P01116, G13D).
T1 construct: engineered to express a Hobbit-tagged endogenous KRAS protein; endogenous in cells; host or cells: H647, endogenous KRAS locus engineered with a HiBiT tag
T1 sequence (P01116 1-185 isoform P01116-2 G13D limits assumed): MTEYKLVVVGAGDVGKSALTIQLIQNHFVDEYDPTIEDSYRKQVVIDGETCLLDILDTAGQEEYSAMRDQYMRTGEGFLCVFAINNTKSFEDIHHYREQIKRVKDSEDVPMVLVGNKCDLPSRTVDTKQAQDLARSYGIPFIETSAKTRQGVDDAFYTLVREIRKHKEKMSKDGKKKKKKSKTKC
Put plainly: HIBIT degradation assay, H647 cells. The note with it: 24 h, HiBiT signal normalized to CTG signal; for Effect on KRAS Protein Degradation, H647, 3 μM: compound at 3 μM; for Effect on KRAS Protein Degradation, H647, 5 μM: compound at 5 μM. The procedure:
(§2) HEK293, MIA PaCa-2, AsPc-1, SW620, and H647 cells were engineered to express a […] endogenous KRAS protein. The HEK293 and MIA PaCa-2 cells were cultured in DMEM media supplemented with 10% fetal bovine serum, streptomycin, and penicillin. The AsPc-1, SW620, and H647 were cultured in RPMI media supplemented with 10% fetal bovine serum, streptomycin, and penicillin. The cells were seeded in white walled 96-well plates at 20,000 cells/well in 100 μL culture media in duplicate plates. After incubated at 37° C. under 5% CO2 overnight, the cells were treated with DMSO (control) or a compound, followed by the addition of 100 μL culture media to each well. After the cells were incubated for 24 h at 37° C. under 5% C02, 150 μL media were removed from each well and 50 μL NANOGLO-LGBIT lytic reagent were added to each well, and 50 μL CELLTITER-GLO (CTG) reagent was added to the duplicate plate. Following a 10-minute incubation with shaking, luminescence was measured using a Perkin Elmer ENVISION multimode plate reader. HiBiT signal was normalized to CTG signal. The results are summarized in Table 3, where “A” represents a percentage degradation value of no less than 50%; “B” represents a percentage degradation value of less than 50% and no less than 25%; “C” represents a percentage degradation value of less than 25% and no less than 10%; and “D” represents a percentage degradation value of less than 10%.
In general terms: With HiBiT, luminescence reflects the tagged protein that the partner subunit can reach.

Assay [2] addresses T2, KRAS protein (Homo sapiens, UniProt P01116).
T2 construct: engineered to express a Hobbit-tagged endogenous KRAS protein; endogenous in cells; host or cells: HEK293, endogenous KRAS locus engineered with a HiBiT tag
Description: HIBIT degradation assay, HEK293 cells. The note with it: 24 h, HiBiT signal normalized to CTG signal; for Effect on KRAS Protein Degradation, HEK293, 3 μM: compound at 3 μM; for Effect on KRAS Protein Degradation, HEK293, 5 μM: compound at 5 μM. Here is the method: as §2

The target of assay [3] is T3, KRAS protein (Homo sapiens, UniProt P01116, G12D).
T3 construct: engineered to express a Hobbit-tagged endogenous KRAS protein; endogenous in cells; host or cells: AsPC-1, endogenous KRAS locus engineered with a HiBiT tag
T3 sequence (P01116 1-188 isoform P01116-2 G12D): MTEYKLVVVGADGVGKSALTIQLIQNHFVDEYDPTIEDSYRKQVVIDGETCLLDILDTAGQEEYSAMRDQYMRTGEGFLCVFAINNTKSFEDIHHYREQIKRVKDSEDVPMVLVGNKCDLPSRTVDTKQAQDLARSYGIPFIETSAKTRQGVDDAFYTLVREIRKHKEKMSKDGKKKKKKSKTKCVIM
Description: HIBIT degradation assay, AsPC-1 cells. The note with it: 24 h, HiBiT signal normalized to CTG signal; for Effect on KRAS Protein Degradation, AsPC-1, 3 μM: compound at 3 μM; for Effect on KRAS Protein Degradation, AsPC-1, 5 μM: compound at 5 μM. Here is the method: as §2

A further assay concerns Molm-13 cells. Description: Cell viability assay, inhibition of Molm-13 cells. To be noted: Homo sapiens; for inhibition at 1 µM: compound at 1 μM; for inhibition at 3 µM: compound at 3 μM. The procedure:
[Worded in the source for another cell line; this cell line is reported under the same test.] as §1

T2 sequence (P01116 1-188 isoform P01116-2): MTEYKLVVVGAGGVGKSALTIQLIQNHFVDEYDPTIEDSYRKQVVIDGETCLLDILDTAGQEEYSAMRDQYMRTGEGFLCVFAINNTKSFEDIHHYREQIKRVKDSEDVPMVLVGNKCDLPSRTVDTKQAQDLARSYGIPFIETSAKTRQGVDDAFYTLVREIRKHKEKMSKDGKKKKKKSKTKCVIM

Regarding `Cc1nn2c(N3CCN(CCO)CC3)cc(-c3cccc(CCCCCCCN4CCC(Nc5cccc(NC6CCC(=O)NC6=O)c5)CC4)c3)nc2c1-c1ccccc1` (stereo not drawn) [Compound A1, 3-((3-((1-(7-(3-(7-(4-(2-Hydroxyethyl)piperazin-1-yl)-2-methyl-3-phenyl-pyrazolo[1,5-a]pyrimidin-5-yl)phenyl)heptyl)piperidin-4-yl)amino)phenyl)amino)piperidine-2,6-dione], the half-maximal inhibitory concentration (IC50) (usually the concentration that inhibits the measured activity by half) with Lovo (G13D) cells came to 0.43 µM; with SW480 (G12V) cells, 0.4 µM; with SW48 (wt) cells, 0.54 µM; in the assay on H23 cells it was 0.81 µM; in the assay with H358 (G12C) cells, 0.9 µM.
Regarding `Cc1nn2c(N3CCN(CCO)CC3)cc(-c3cccc(CCCCCN4CCN(C(=O)CNc5cccc(C6CCC(=O)NC6=O)c5)CC4)c3)nc2c1-c1ccccc1` (stereo not drawn) [Compound B5, 3-(3-((2-(4-(5-(3-(7-(4-(2-hydroxyethyl)piperazin-1-yl)-2-methyl-3-phenyl-pyrazolo[1,5-a]pyrimidin-5-yl)phenyl)pentyl)piperazin-1-yl)-2-oxoethyl)amino)phenyl)-piperidine-2,6-dione], the half-maximal inhibitory concentration (IC50) in the assay with Lovo (G13D) cells was determined as 0.31 µM; with SW480 (G12V) cells, 0.42 µM; with SW48 (wt) cells it was 0.45 µM; in the assay with H23 cells it was 0.83 µM; with H358 (G12C) cells, 0.52 µM. Also, the “Effect on KRAS Protein Degradation, H647, 3 μM” value (from here on “Effect … H647, 3 μM”) on KRAS protein [1] is reported as “D (a percentage degradation value of less than 10%)”. The “Effect on KRAS Protein Degradation, H647, 5 μM” value at KRAS protein [1] is on record as “A (a percentage degradation value of no less than 50%)”.
`Cc1nn2c(N3CCN(CCO)CC3)cc(-c3cccc(CCCCCCCN4CCN(C(=O)COc5cccc(N6CCC(=O)NC6=O)c5)CC4)c3)nc2c1-c1ccccc1` [Compound C2, 1-(3-(2-(4-(7-(3-(7-(4-(2-Hydroxyethyl)piperazin-1-yl)-2-methyl-3-phenyl-pyrazolo[1,5-a]pyrimidin-5-yl)phenyl)heptyl)piperazin-1-yl)-2-oxoethoxy)phenyl)dihydro-pyrimidine-2,4(1H,3H)-dione]: the “Effect on KRAS Protein Degradation, HEK293, 3 μM” value (from here on “Effect … HEK293, 3 μM”) at KRAS protein [2] was “B (a percentage degradation value of less than 50% and no less than 25%)”.
For the compound `Cc1nn2c(N3CCN(CCO)CC3)cc(-c3cccc(CCCCCN4CCN(C(=O)CNc5cccc6c(C7CCC(=O)NC7=O)nn(C)c56)CC4)c3)nc2c1-c1ccccc1` (stereo not drawn) [Compound D5, 3-(7-((2-(4-(5-(3-(7-(4-(2-hydroxyethyl)piperazin-1-yl)-2-methyl-3-phenyl-pyrazolo[1,5-a]pyrimidin-5-yl)phenyl)pentyl)piperazin-1-yl)-2-oxoethyl)amino)-1-methyl-1H-indazol-3-yl)piperidine-2,6-dione], the IC50 was 0.27 µM in the assay on Lovo (G13D) cells; 0.42 µM in the assay with SW480 (G12V) cells; 0.5 µM with SW48 (wt) cells; 0.95 µM in the assay with H23 cells; 0.49 µM in the assay on H358 (G12C) cells.
For `Cc1nn2c(N3CCN(CCO)CC3)cc(-c3ccccc3)nc2c1-c1cccc(CCCN2CCN(C(=O)CNc3cccc4c(N5CCC(=O)NC5=O)nn(C)c34)CC2)c1` [Compound D16, 1-(7-((2-(4-(3-(3-(7-(4-(2-Hydroxyethyl)piperazin-1-yl)-2-methyl-5-phenyl-pyrazolo[1,5-a]pyrimidin-3-yl)phenyl)propyl)piperazin-1-yl)-2-oxoethyl)amino)-1-methyl-1H-indazol-3-yl)dihydropyrimidine-2,4(1H,3H)-dione], on KRAS protein [2], the “Effect … HEK293, 3 μM” value is “C (a percentage degradation value of less than 25% and no less than 10%)”; the “Effect on KRAS Protein Degradation, HEK293, 5 μM” value is “C (a percentage degradation value of less than 25% and no less than 10%)”. Moreover, at KRAS protein [3], the “Effect on KRAS Protein Degradation, AsPC-1, 3 μM” value (“Effect … AsPC-1, 3 μM” below) is “C (a percentage degradation value of less than 25% and no less than 10%)”; the “Effect on KRAS Protein Degradation, AsPC-1, 5 μM” value (shortened to “Effect … AsPC-1, 5 μM”) is “D (a percentage degradation value of less than 10%)”.
Turning to `Cc1nn2c(N3CCN(CCO)CC3)cc(-c3ccccc3)nc2c1-c1cccc(CCCCCN2CCN(C(=O)CNc3cccc4c(N5CCC(=O)NC5=O)nn(C)c34)CC2)c1` [Compound D17, 1-(7-((2-(4-(5-(3-(7-(4-(2-hydroxyethyl)piperazin-1-yl)-2-methyl-5-phenyl-pyrazolo[1,5-a]pyrimidin-3-yl)phenyl)pentyl)piperazin-1-yl)-2-oxoethyl)amino)-1-methyl-1H-indazol-3-yl)dihydropyrimidine-2,4(1H,3H)-dione], in the assay on Molm-13 cells, at 1 µM the inhibition was 34% and the inhibition (commonly how much of the control response was suppressed) at 3 µM worked out at 99%. Moreover, at KRAS protein [2], the “Effect … HEK293, 3 μM” value was “C (a percentage degradation value of less than 25% and no less than 10%)”; the “Effect on KRAS Protein Degradation, HEK293, 5 μM” value is “C (a percentage degradation value of less than 25% and no less than 10%)”. For the same compound, on KRAS protein [3], the “Effect … AsPC-1, 3 μM” value was “B (a percentage degradation value of less than 50% and no less than 25%)”; the “Effect … AsPC-1, 5 μM” value is “C (a percentage degradation value of less than 25% and no less than 10%)”. The “Effect … H647, 3 μM” value on KRAS protein [1] is “C (a percentage degradation value of less than 25% and no less than 10%)”.
Turning to `Cc1nn2c(N3CCN(CCO)CC3)cc(-c3ccccc3)nc2c1-c1cccc(CCCCCCCN2CCN(C(=O)CNc3cccc4c(N5CCC(=O)NC5=O)nn(C)c34)CC2)c1` [Compound D18, 1-(7-((2-(4-(7-(3-(7-(4-(2-hydroxyethyl)piperazin-1-yl)-2-methyl-5-phenyl-pyrazolo[1,5-a]pyrimidin-3-yl)phenyl)heptyl)piperazin-1-yl)-2-oxoethyl)amino)-1-methyl-1H-indazol-3-yl)dihydropyrimidine-2,4(1H,3H)-dione], in the assay on Molm-13 cells, the inhibition at 1 µM worked out at 14% and the inhibition at 3 µM came to 95%. At KRAS protein [3], the “Effect … AsPC-1, 3 μM” value is “B (a percentage degradation value of less than 50% and no less than 25%)”; the “Effect … AsPC-1, 5 μM” value was “C (a percentage degradation value of less than 25% and no less than 10%)”. Also, at KRAS protein [1], the “Effect … H647, 3 μM” value is given as “D (a percentage degradation value of less than 10%)”; the “Effect on KRAS Protein Degradation, H647, 5 μM” value is “C (a percentage degradation value of less than 25% and no less than 10%)”.
Regarding `Cc1nn2c(N3CCN(CCO)CC3)cc(-c3ccccc3)nc2c1-c1ccccc1` [Compound T1, 2-(4-(2-methyl-3,5-diphenylpyrazolo[1,5-a]pyrimidin-7-yl)piperazin-1-yl)ethan-1-ol, reference compound], the IC50 in the assay with Lovo (G13D) cells came out at 1.3 µM; with SW480 (G12V) cells, 0.7 µM; in the assay with SW48 (wt) cells it was 1.9 µM; with H23 cells, 2.5 µM; in the assay on H358 (G12C) cells, 2.4 µM. The inhibition at 1 µM with Molm-13 cells was 0%. Further, the inhibition at 10 µM with Molm-13 cells (compound at 10 μM) amounted to 99%.
